Reference: PubChem BioAssay AID248 (DTP/NCI, 2004)
Where “and” joins values, the source holds several entries; their conditions need not be identical. Equal values may be shown once. Inconclusive results and toxic doses are left out. Cut-off read from the data, not from the text of the source: active = T/C of 150% or more; inactive = T/C below 125%.

System: L1210 leukemia ip in BDF1 mice, survival T/C
Experiment: NCI In Vivo Anticancer Drug Screen. Data for tumor model L1210 Leukemia (intraperitoneal) in B6D2F1 (BDF1) mice
Settings: endpoint: mean survival time, higher = longer survival
Procedure, shortened: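 Transplantable tumor model; survival measured in treated vs vehicle control mice. Value = treated/control.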

[1] = dose: 100.0 mg/kg/injection, schedule: Q04DX003 (ip), vehicle: Klucel (hydroxypropylcellulose) (HPC)
[2] = dose: 200.0 mg/kg/injection, schedule: Q04DX003 (ip), vehicle: Klucel (hydroxypropylcellulose) (HPC)
[3] = dose: 400.0 mg/kg/injection, schedule: Q04DX003 (ip), vehicle: Klucel (hydroxypropylcellulose) (HPC)
[4] = dose: 100.0 mg/kg/injection, schedule: Q01DX001 (ip), vehicle: carboxymethylcellulose (CMC)
[5] = dose: 200.0 mg/kg/injection, schedule: Q01DX001 (ip), vehicle: carboxymethylcellulose (CMC)
[6] = dose: 400.0 mg/kg/injection, schedule: Q01DX001 (ip), vehicle: carboxymethylcellulose (CMC)
[7] = dose: 100.0 mg/kg/injection, schedule: Q01DX009 (ip), vehicle: saline with Tween-80
[8] = dose: 100.0 mg/kg/injection, schedule: Q04DX003 (ip), vehicle: saline with Tween-80
[9] = dose: 200.0 mg/kg/injection, schedule: Q01DX009 (ip), vehicle: saline with Tween-80
[10] = dose: 200.0 mg/kg/injection, schedule: Q04DX003 (ip), vehicle: saline with Tween-80
[11] = dose: 400.0 mg/kg/injection, schedule: Q04DX003 (ip), vehicle: saline with Tween-80
[12] = dose: 100.0 mg/kg/injection, schedule: Q04DX002 (ip), vehicle: Klucel (hydroxypropylcellulose) (HPC)
[13] = dose: 200.0 mg/kg/injection, schedule: Q04DX002 (ip), vehicle: Klucel (hydroxypropylcellulose) (HPC)
[14] = dose: 400.0 mg/kg/injection, schedule: Q04DX002 (ip), vehicle: Klucel (hydroxypropylcellulose) (HPC)
[15] = dose: 15.0 mg/kg/injection, schedule: Q01DX Z (ip), vehicle: saline
[16] = dose: 30.0 mg/kg/injection, schedule: Q01DX Z (ip), vehicle: saline
[17] = dose: 60.0 mg/kg/injection, schedule: Q01DX Z (ip), vehicle: saline
[18] = dose: 60.0 mg/kg/injection, schedule: Q01DX Z (oral), vehicle: other
[19] = dose: 120.0 mg/kg/injection, schedule: Q01DX Z (oral), vehicle: other

Measured: T/C

CN(C)[C@@H]1C(=O)C(C(N)=O)=C(O)[C@@]2(O)C(=O)C3=C(O)c4c(O)cccc4C[C@H]3C[C@@H]12
inactive: dose: 12.5 mg/kg/injection, schedule: Q01DX001 (ip), vehicle: other 94 % of control | dose: 12.5 mg/kg/injection, schedule: Q04DX003 (ip), vehicle: Klucel (hydroxypropylcellulose) (HPC) 98 % of control | dose: 18.75 mg/kg/injection, schedule: Q01DX009 (ip), vehicle: other 111 % of control | dose: 25.0 mg/kg/injection, schedule: Q01DX001 (ip), vehicle: other 96 % of control | dose: 25.0 mg/kg/injection, schedule: Q04DX003 (ip), vehicle: Klucel (hydroxypropylcellulose) (HPC) 104 % of control | dose: 37.5 mg/kg/injection, schedule: Q01DX009 (ip), vehicle: other 117 % of control | dose: 50.0 mg/kg/injection, schedule: Q01DX001 (ip), vehicle: other 100 % of control | dose: 50.0 mg/kg/injection, schedule: Q04DX003 (ip), vehicle: Klucel (hydroxypropylcellulose) (HPC) 107 % of control | dose: 75.0 mg/kg/injection, schedule: Q04DX003 (ip), vehicle: other 107 % of control | dose: 100.0 mg/kg/injection, schedule: Q01DX001 (ip), vehicle: saline 112 % of control

C[CH2][Pb]([CH2]C)([CH2]C)[S]c1ccccn1
inactive: dose: 25.0 mg/kg/injection, schedule: Q04DX002 (sc), vehicle: olive oil, sesame oil, peanut oil 95 % of control | dose: 50.0 mg/kg/injection, schedule: Q04DX002 (sc), vehicle: olive oil, sesame oil, peanut oil 100 % of control | dose: 100.0 mg/kg/injection, schedule: Q04DX002 (sc), vehicle: olive oil, sesame oil, peanut oil 100 % of control

C=C(C)C1CCC2(C(=O)O)CCC3(C)C(CCC4C5(C)CCC(O)C(C)(C)C5CCC43C)C12 (stereo not drawn)
inactive: [1] 104 % of control | [2] 97 % of control | [3] 96 % of control

CC(C)CN1CCC(=O)NC1=O
inactive: dose: 100.0 mg/kg/injection, schedule: Q01DX Z (ip), vehicle: saline 100 % of control | dose: 200.0 mg/kg/injection, schedule: Q01DX Z (ip), vehicle: saline 94 % of control

COc1ccc(CC(=O)NCCc2ccccc2)cc1
inactive: [4] 96 % of control | [5] 98 % of control | [6] 96 % of control

O=[N+]([O-])c1ccc(-c2ccc(Br)cc2)cc1
inactive: [7] 100 % of control | [8] 101 % of control | [9] 86 % of control | [10] 94 % of control | [11] 103 % of control

O=C(NCCNC(=O)c1ccncc1)c1ccccc1
inactive: [4] 93 % of control | [5] 104 % of control | [6] 98 % of control

Cc1cccc(NC(=O)Nc2ccccc2Cl)n1
inactive: [12] 87 % of control | [13] 87 % of control | [14] 90 % of control

CC12CCC(C/C1=N\N=C(N)N)C2(C)C (stereo not drawn)
inactive: dose: 9.37 mg/kg/injection, schedule: Q01DX009 (ip), vehicle: saline 97 % of control | dose: 18.75 mg/kg/injection, schedule: Q01DX009 (ip), vehicle: saline 96 % of control | dose: 18.75 mg/kg/injection, schedule: Q04DX003 (ip), vehicle: saline 102 % of control | dose: 37.5 mg/kg/injection, schedule: Q01DX009 (ip), vehicle: saline 102 % of control | dose: 37.5 mg/kg/injection, schedule: Q04DX003 (ip), vehicle: saline 94 % of control | dose: 75.0 mg/kg/injection, schedule: Q01DX001 (ip), vehicle: saline 105 % of control | dose: 75.0 mg/kg/injection, schedule: Q04DX003 (ip), vehicle: saline 88 % of control

CN(C)c1ccc(/C=N/N=C(N)N)cc1
inactive: [15] 89 % of control | [16] 92 % of control | dose: 30.0 mg/kg/injection, schedule: Q01DX Z (oral), vehicle: other 100 % of control | [17] 100 % of control | [18] 97 % of control | [19] 109 % of control

O=C1CCCCC1(O)C[N+](=O)[O-] (stereo not drawn)
inactive: dose: 75.0 mg/kg/injection, schedule: Q01DX001 (ip), vehicle: carboxymethylcellulose (CMC) 96 % of control

COc1ccc(-n2c(O)c(N=Nc3ccc(Br)cc3)c(=O)n(-c3ccccc3)c2=S)cc1
inactive: dose: 50.0 mg/kg/injection, schedule: Q01DX001 (ip), vehicle: Klucel (hydroxypropylcellulose) (HPC) 102 % of control | dose: 100.0 mg/kg/injection, schedule: Q01DX001 (ip), vehicle: Klucel (hydroxypropylcellulose) (HPC) 104 % of control | dose: 200.0 mg/kg/injection, schedule: Q01DX001 (ip), vehicle: Klucel (hydroxypropylcellulose) (HPC) 100 % of control

CCNC(=S)Nc1cccc(C)c1
inactive: dose: 25.0 mg/kg/injection, schedule: Q04DX002 (ip), vehicle: gum acacia 102 % of control | dose: 50.0 mg/kg/injection, schedule: Q04DX002 (ip), vehicle: gum acacia 97 % of control | dose: 100.0 mg/kg/injection, schedule: Q04DX002 (ip), vehicle: gum acacia 97 % of control | dose: 200.0 mg/kg/injection, schedule: Q04DX002 (ip), vehicle: gum acacia 89 % of control

CP1(=O)CCC(=O)C1Br (stereo not drawn)
inactive: dose: 50.0 mg/kg/injection, schedule: Q04DX002 (ip), vehicle: saline with Tween-80 98 % of control | dose: 100.0 mg/kg/injection, schedule: Q04DX002 (ip), vehicle: saline with Tween-80 95 % of control | dose: 200.0 mg/kg/injection, schedule: Q04DX002 (ip), vehicle: saline with Tween-80 91 % of control

CCOC(=O)CNc1cccc(F)c1
inactive: [12] 101 % of control | [13] 108 % of control | [14] 105 % of control

N#Cc1ccc(OCCCCCOc2ccc([N+](=O)[O-])cc2)cc1
inactive: dose: 75.0 mg/kg/injection, schedule: Q01DX009 (ip), vehicle: Klucel (hydroxypropylcellulose) (HPC) 101 % of control | dose: 150.0 mg/kg/injection, schedule: Q01DX009 (ip), vehicle: Klucel (hydroxypropylcellulose) (HPC) 97 % of control | dose: 300.0 mg/kg/injection, schedule: Q01DX009 (ip), vehicle: Klucel (hydroxypropylcellulose) (HPC) 100 % of control

CCOC(=O)c1cc(/C=C/c2ccccc2)[nH]c(=O)c1C#N
inactive: dose: 100.0 mg/kg/injection, schedule: Q01DX009 (ip), vehicle: Klucel (hydroxypropylcellulose) (HPC) 98 % of control | [1] 95 % of control | dose: 200.0 mg/kg/injection, schedule: Q01DX009 (ip), vehicle: Klucel (hydroxypropylcellulose) (HPC) 97 % of control | [2] 93 % of control | dose: 400.0 mg/kg/injection, schedule: Q01DX009 (ip), vehicle: Klucel (hydroxypropylcellulose) (HPC) 98 % of control | [3] 90 % of control

NC(N)=N/N=C/c1ccccc1S(=O)(=O)O
inactive: [15] 92 % of control | [16] 95 % of control | [17] 94 % of control | [18] 98 % of control | dose: 120.0 mg/kg/injection, schedule: Q01DX Z (ip), vehicle: saline 86 % of control | [19] 101 % of control | dose: 240.0 mg/kg/injection, schedule: Q01DX Z (oral), vehicle: other 97 % of control | dose: 480.0 mg/kg/injection, schedule: Q01DX Z (oral), vehicle: other 98 % of control

CCCCCCCCCCCCCC(=O)CC
inactive: dose: 90.0 mg/kg/injection, schedule: Q01DX009 (ip), vehicle: saline with Tween-80 98 % of control | [7] 92 % of control and 96 % of control | [8] 96 % of control | dose: 135.0 mg/kg/injection, schedule: Q01DX009 (ip), vehicle: saline with Tween-80 87 % of control | [9] 87 % of control and 88 % of control | [10] 96 % of control | dose: 300.0 mg/kg/injection, schedule: Q01DX009 (ip), vehicle: saline with Tween-80 92 % of control | dose: 400.0 mg/kg/injection, schedule: Q01DX009 (ip), vehicle: saline with Tween-80 97 % of control and 105 % of control | [11] 102 % of control

O=C(N/N=C/c1ccc2c(c1)CCC2)Nc1ccc([N+](=O)[O-])cc1[N+](=O)[O-]
inactive: dose: 100.0 mg/kg/injection, schedule: Q04DX003 (ip), vehicle: saline 91 % of control | dose: 200.0 mg/kg/injection, schedule: Q04DX003 (ip), vehicle: saline 98 % of control | dose: 400.0 mg/kg/injection, schedule: Q04DX003 (ip), vehicle: saline 101 % of control
